# Results published in patent US12195427B2, “MASP-2 inhibitors and methods of use” (priority 2018, dated 2025).
# Molecular target: MASP-2 CCP2-SP (Homo sapiens (Human), UniProt O00187)
# Experiment: MASP-2 co-crystallization, X-ray crystallography and structure analysis (H-bonds, van der Waals contacts);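 as to Ligand-pharmacophore element distance, pharmacophore element C2: distance from averaged pharmacophore element to bound ligand; missing value means element absent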;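 as to Ligand-pharmacophore element distance, pharmacophore element C3: distance from averaged pharmacophore element to bound ligand; missing value means element absent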;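 as to Ligand-pharmacophore element distance, pharmacophore element C4: distance from averaged pharmacophore element to bound ligand; missing value means element absent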;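 as to Ligand-pharmacophore element distance, pharmacophore element C5: distance from averaged pharmacophore element to bound ligand; missing value means element absent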
# Design: van der Waals contact distance, MASP-2 HIS 483 atom CD2 / van der Waals contact distance, MASP-2 HIS 483 atom NE2 / van der Waals contact distance, SER 654 C to compound atom / van der Waals contact distance, SER 654 O to compound atom / van der Waals contact distance, TRP 655 C to compound atom / van der Waals contact distance, MASP-2 GLY 528 atom CA / van der Waals contact distance TRP 655 atom CZ3 / van der Waals contact distance TRP 655 atom N / van der Waals contact distance TRP 655 atom CE3 / van der Waals contact distance GLY 656 atom C / van der Waals contact distance GLY 656 atom CA / van der Waals contact distance GLY 656 atom O / van der Waals contact distance, MASP-2 TYR 607 atom CD1 / van der Waals contact distance, MASP-2 PRO 606 atom O / d(C3,CA1) / d(CA1,N1)2 / d(H4,O1) / d(H4,O2) / d(O1,O2) / d(CA1,O2) / d(CA6,O1) / d(CA6,O2) / d(CA1,C5) / d(O2,H3) / d(N2,C2) / d(CA5,N2) / d(N2,C4) / d(N2,C6) / d(N2,CA3) / d(N2,O3) / d(O4,H2): unit not given beside the values
# Settings: for H-bond distance to MASP-2 GLY 656 atom N: GLY 656 N; for H-bond distance to MASP-2 SER 654 atom O: SER 654 O; for H-bond distance to MASP-2 SER 657 atom O: SER 657 O; for van der Waals contact distance, MASP-2 HIS 483 atom CD2: Table A2-1; for Ligand-pharmacophore element distance, pharmacophore element C2 / Ligand-pharmacophore element distance, pharmacophore element C3 / Ligand-pharmacophore element distance, pharmacophore element C4 / Ligand-pharmacophore element distance, pharmacophore element C5 / Ligand-pharmacophore element distance, pharmacophore element C6 / Ligand-pharmacophore element distance, pharmacophore element C7 / Ligand-pharmacophore element distance, pharmacophore element CA1 / Ligand-pharmacophore element distance, pharmacophore element CA2 / Ligand-pharmacophore element distance, pharmacophore element CA3 / Ligand-pharmacophore element distance, pharmacophore element CA4 / Ligand-pharmacophore element distance, pharmacophore element CA5 / Ligand-pharmacophore element distance, pharmacophore element CA6: Table A4-1
# Procedure, shortened: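 Inhibitor complexes were obtained by soaking crystals of E. coli-expressed human MASP-2 CCP2-SP constructs, then flash-cooling in liquid nitrogen. Structures solved by molecular replacement (1Q3X search model) from synchrotron diffraction; where several poses existed, only one was analyzed, and nonbonded contacts listed can include H-bonds.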
# [1] = Table A5-1 pharmacophore: distance between elements, S2/S1 region
# [2] = Table A5-2 pharmacophore distance, S3/S4 region
# [3] = Table A7-1, between pharmacophore elements of the bound compound
# [4] = Table A7-2, between pharmacophore elements of the bound compound
# [5] = Table A8-6, nearest protein atom in cell to the left
# MASP-2 CCP2-SP, sequence (O00187 445-686): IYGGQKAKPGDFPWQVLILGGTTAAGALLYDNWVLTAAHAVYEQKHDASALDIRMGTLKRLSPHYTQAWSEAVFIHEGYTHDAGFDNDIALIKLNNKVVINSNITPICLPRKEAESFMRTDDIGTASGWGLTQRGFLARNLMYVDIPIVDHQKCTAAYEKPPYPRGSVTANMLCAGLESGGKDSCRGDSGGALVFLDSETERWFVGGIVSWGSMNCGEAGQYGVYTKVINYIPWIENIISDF
# MASP-2 CCP2-SP, sequence (O00187 364-432 partner): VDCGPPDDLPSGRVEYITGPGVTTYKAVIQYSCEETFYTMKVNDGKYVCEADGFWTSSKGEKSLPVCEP
structure (smiles),measurement,setting,value
N=C(N)c1ccc(CNC(=O)[C@@H]2CCN2C(=O)[C@H](NCC(=O)O)C2Cc3ccccc3C2)cc1 [compound 1129],H-bond distance to MASP-2 ASP 627 atom OD1,"Table A1 (H-Bonds), ASP 627 OD1",2.79
same,H-bond distance to MASP-2 GLN 665 atom OE1,"Table A1 (H-Bonds), GLN 665 OE1",2.76
same,H-bond distance to MASP-2 GLY 656 atom N,Table A1 (H-Bonds),2.93
same,H-bond distance to MASP-2 SER 628 atom OG,"Table A1 (H-Bonds), SER 628 OG",2.86
same,H-bond distance to MASP-2 SER 654 atom O,Table A1 (H-Bonds),2.84
same,H-bond distance to MASP-2 SER 657 atom O,Table A1 (H-Bonds),2.92
same,"van der Waals contact distance, MASP-2 HIS 483 atom CD2",,3.75
same,"van der Waals contact distance, MASP-2 PHE 529 atom CE1",Table A2-3,3.52
same,"van der Waals contact distance, MASP-2 PRO 606 atom C",Table A2-4,3.86
same,"van der Waals contact distance, MASP-2 amino acid atom to compound atom","Table A2-9 second part, ARG 630, AA atoms N, NE, NH1",3.69
same,"van der Waals contact distance, VAL 653 CG1 to compound atom",Table A2-11,3.9
same,van der Waals contact distance GLY 656 atom C,"Table A2-13, MASP-2 GLY 656 C",3.54
same,"Ligand-pharmacophore element distance, pharmacophore element C2",,3.15
same,"Ligand-pharmacophore element distance, pharmacophore element C3",,0
same,"Ligand-pharmacophore element distance, pharmacophore element C4",,0
same,"Ligand-pharmacophore element distance, pharmacophore element C5",,0
same,"Ligand-pharmacophore element distance, pharmacophore element C6",,0
same,"Ligand-pharmacophore element distance, pharmacophore element C7",,0
same,"Ligand-pharmacophore element distance, pharmacophore element CA1",,0.35
same,"Ligand-pharmacophore element distance, pharmacophore element CA2",,0
same,"Ligand-pharmacophore element distance, pharmacophore element CA3",,0
same,"Ligand-pharmacophore element distance, pharmacophore element CA4",,0
same,"Ligand-pharmacophore element distance, pharmacophore element CA5",,0.67
same,"Ligand-pharmacophore element distance, pharmacophore element CA6",,0
same,"Ligand-pharmacophore element distance, pharmacophore element H1","Table A4-2, element H1",0
same,"Ligand-pharmacophore element distance, pharmacophore element H2","Table A4-2, element H2",0
same,"Ligand-pharmacophore element distance, pharmacophore element H3","Table A4-2, element H3",1.34
same,"Ligand-pharmacophore element distance, pharmacophore element H4","Table A4-2, element H4",3.79
same,"Ligand-pharmacophore element distance, pharmacophore element N1","Table A4-2, element N1",1.8
same,"Ligand-pharmacophore element distance, pharmacophore element N2","Table A4-2, element N2",1.8
same,"Ligand-pharmacophore element distance, pharmacophore element O1","Table A4-2, element O1",0.39
same,"Ligand-pharmacophore element distance, pharmacophore element O2","Table A4-2, element O2",0.58
same,"Ligand-pharmacophore element distance, pharmacophore element O3","Table A4-2, element O3",0
same,"Ligand-pharmacophore element distance, pharmacophore element O4","Table A4-2, element O4",0
same,"d(CA1,N1)",[1],3.60
same,"d(CA1,O1)",[1],4.47
same,"d(CA1,O2)",[1],4.37
same,"d(H4,O1)",[1],5.00
same,"d(H4,O2)",[1],4.63
same,"d(O1,O2)",[1],3.49
same,"d(CA5,N2)",[2],5.54
same,"d(N2,C2)",[2],2.76
same,"d(O2,H3)",[2],2.83
same,"d(O2,N2)",[2],3.19
same,"a(CA1, O1, O2)",Table A6-1 pharmacophore angle,111.77
same,"a(O1, O2, H4)",Table A6-1 pharmacophore angle,137.67
same,"A(N1, CA1, O1) a)","Table A6-1 pharmacophore angle, all compounds with protonatable center N1 except Methyl-amino-pyridine",164.78
same,"a(O1, O2, H3)",Table A6-2 pharmacophore angle,122.63
same,"a(O1, O2, N2)",Table A6-2 pharmacophore angle,127.76
same,"a(O2, N2, C2)",Table A6-2 pharmacophore angle,110.31
same,"Pharmacophore torsion angle a(H4, O1, O2, H3)",[3],104.70
same,"Pharmacophore torsion angle a(H4, O1, O2, N2)",[3],133.45
same,"Pharmacophore torsion angle a(N1, CA1, O2, H4)",[3],−139.56
same,"Pharmacophore torsion angle a(O1, H4, O2, CA1)",[3],−65.27
same,"Pharmacophore torsion angle a(O1, O2, N2, C2)",[3],95.54
same,"Pharmacophore torsion angle a(O1, O2, N2, CA5)",[4],145.95
same,Pharmacophore protein distance to MET_658 (first MET_658 column),"Table A8-6, 6th residue column, nearest protein atom in cell to the left",2.85
same,Pharmacophore protein distance to MET_658 (second MET_658 column),"Table A8-6, 9th residue column, nearest protein atom in cell to the left",3.11
same,Pharmacophore protein distance to GLY_528,[5],3.51
same,Pharmacophore protein distance to PHE_529,[5],2.98
same,Pharmacophore protein distance to PRO_608,[5],4.05
same,Pharmacophore protein distance to SER_611,[5],2.58
same,Pharmacophore protein distance to TRP_655,"Table A8-6, pharmacophore elements C6, CA3, O3, H1, nearest protein atom in cell to the left",3.31
C[C@H](NC(=O)[C@H]1C[C@H](c2ccccc2)CN1)C(=O)NCc1ccc(N)nc1 [compound 1012],H-bond distance to MASP-2 ASP 627 atom OD2,"Table A1 (H-Bonds), ASP 627 OD2",3.18
same,H-bond distance to MASP-2 GLY 656 atom N,Table A1 (H-Bonds),3.18
same,H-bond distance to MASP-2 GLY 656 atom O,"Table A1 (H-Bonds), GLY 656 O",2.77
same,H-bond distance to MASP-2 SER 654 atom O,Table A1 (H-Bonds),2.93
same,H-bond distance to MASP-2 SER 657 atom O,Table A1 (H-Bonds),2.89
same,"van der Waals contact distance, MASP-2 HIS 483 atom CD2",,3.63
same,"van der Waals contact distance, MASP-2 PHE 529 atom CE1",Table A2-3,3.75
same,"van der Waals contact distance, MASP-2 PHE 529 atom CE2",Table A2-3,3.78
same,"van der Waals contact distance, MASP-2 PRO 606 atom CG",Table A2-4,3.85
same,"van der Waals contact distance, MASP-2 amino acid atom to compound atom","Table A2-5: TYR 607 (CE1, CE2, OH), PRO 608 (CD, CG), SER 611 (CA)",3.88
same,"van der Waals contact distance, MASP-2 amino acid atom to compound atom","Table A2-6: SER 611 (CB, OG), ASP 627 (CG, OD1, OD2), SER 628 (C, CA)",3.6
same,"van der Waals contact distance, MASP-2 amino acid atom to compound atom","Table A2-7: SER 628 (CB, O, OG)",3.53
same,"van der Waals contact distance, MASP-2 amino acid atom to compound atom","Table A2-9, ARG 630, AA atoms CG, CZ",3.83
same,"van der Waals contact distance, TRP 655 C to compound atom",Table A2-12,3.8
same,"van der Waals contact distance, TRP 655 CA to compound atom",Table A2-12,3.36
same,van der Waals contact distance GLY 656 atom CA,"Table A2-13, MASP-2 GLY 656 CA",3.73
C[C@H](NC(=O)[C@H]1C[C@@H](c2ccccc2)CCN1)C(=O)NCc1cc(Cl)ccc1O.Cl [1078_11],"Ligand-pharmacophore element distance, pharmacophore element C2",,0.6
same,"Ligand-pharmacophore element distance, pharmacophore element C3",,0
same,"Ligand-pharmacophore element distance, pharmacophore element C4",,0
same,"Ligand-pharmacophore element distance, pharmacophore element C5",,0.41
same,"Ligand-pharmacophore element distance, pharmacophore element C6",,0
same,"Ligand-pharmacophore element distance, pharmacophore element C7",,0
same,"Ligand-pharmacophore element distance, pharmacophore element CA1",,1.64
same,"Ligand-pharmacophore element distance, pharmacophore element CA2",,0.64
same,"Ligand-pharmacophore element distance, pharmacophore element CA3",,0
same,"Ligand-pharmacophore element distance, pharmacophore element CA4",,0
same,"Ligand-pharmacophore element distance, pharmacophore element CA5",,0
same,"Ligand-pharmacophore element distance, pharmacophore element CA6",,0
same,"d(CA1,C5)",[1],3.12
same,"d(CA1,O1)",[1],4.69
same,"d(CA1,O2)",[1],4.58
same,"d(CA1,O4)",[1],2.75
same,"d(H4,O1)",[1],2.26
same,"d(H4,O2)",[1],2.51
same,"d(O1,O2)",[1],3.42
same,"d(O4,H2)",[1],0.97
same,"d(N2,C2)",[2],1.47
same,"d(N2,CA2)",[2],5.75
same,"d(O2,H3)",[2],3.05
same,"d(O2,N2)",[2],2.97
same,"a(C5, CA1, O1)",Table A6-1 pharmacophore angle,161.80
same,"a(CA1, O1, O2)",Table A6-1 pharmacophore angle,109.94
same,"a(CA1, O4, H2)",Table A6-1 pharmacophore angle,130.34
same,"a(O1, CA1, O4)",Table A6-1 pharmacophore angle,59.87
same,"a(O1, O2, H4)",Table A6-1 pharmacophore angle,88.73
same,"a(O1, O2, H3)",Table A6-2 pharmacophore angle,137.81
same,"a(O1, O2, N2)",Table A6-2 pharmacophore angle,142.32
same,"a(O2, N2, C2)",Table A6-2 pharmacophore angle,120.15
same,"a(O2, N2, CA2)",Table A6-2 pharmacophore angle,152.82
same,"Pharmacophore torsion angle a(C5, CA1, O1, H4)",[3],37.14
same,"Pharmacophore torsion angle a(H4, O1, O2, H3)",[3],−120.02
same,"Pharmacophore torsion angle a(H4, O1, O2, N2)",[3],−112.40
same,"Pharmacophore torsion angle a(O1, H4, O2, CA1)",[3],−55.96
same,"Pharmacophore torsion angle a(O1, O2, N2, C2)",[3],136.21
same,"Pharmacophore torsion angle a(O1, O2, N2, CA2)",[4],138.54
